# Measured values published in patent publication US20130217664A1, “NOVEL COMPOUNDS USEFUL FOR THE TREATMENT OF DEGENERATIVE AND INFLAMMATORY DISEASES” (priority 2012, published 2013).
# Assays:
# Format in all cases: biochemical
# human TYK2 = biological target: T1, human TYK2 (Homo sapiens, UniProt P29597); assay: TYK2 inhibition assay; conditions: recombinant human TYK2 catalytic domain, polyGT substrate
# T1 construct: catalytic domain (amino acids 871-1187; catalog number 08-147); purchased Carna Biosciences 08-147
# T1 sequence (P29597 871-1187): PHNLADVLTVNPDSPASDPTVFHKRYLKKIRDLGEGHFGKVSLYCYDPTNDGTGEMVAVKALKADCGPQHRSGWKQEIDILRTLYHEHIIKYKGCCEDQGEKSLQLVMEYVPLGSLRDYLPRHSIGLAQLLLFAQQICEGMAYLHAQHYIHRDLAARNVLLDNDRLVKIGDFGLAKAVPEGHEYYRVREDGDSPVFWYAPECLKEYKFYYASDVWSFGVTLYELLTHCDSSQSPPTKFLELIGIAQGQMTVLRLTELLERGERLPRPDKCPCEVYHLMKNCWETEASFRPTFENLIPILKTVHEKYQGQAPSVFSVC
# Outline: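 Radiometric kinase reaction run 90 min at 30 °C, stopped with phosphoric acid, washed and scintillation-counted.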
# human JAK1 = biological target: T2, human JAK1 (Homo sapiens, UniProt P23458); assay: JAK1 inhibition assay (polyGT substrate / Ulight-JAK1 peptide); conditions: recombinant human JAK1 catalytic domain; polyGT or Ulight-JAK1 peptide assay
# T2 construct: catalytic domain, amino acids 866-1154; catalog number PV4774; purchased Invitrogen PV4774
# T2 sequence (P23458 866-1154): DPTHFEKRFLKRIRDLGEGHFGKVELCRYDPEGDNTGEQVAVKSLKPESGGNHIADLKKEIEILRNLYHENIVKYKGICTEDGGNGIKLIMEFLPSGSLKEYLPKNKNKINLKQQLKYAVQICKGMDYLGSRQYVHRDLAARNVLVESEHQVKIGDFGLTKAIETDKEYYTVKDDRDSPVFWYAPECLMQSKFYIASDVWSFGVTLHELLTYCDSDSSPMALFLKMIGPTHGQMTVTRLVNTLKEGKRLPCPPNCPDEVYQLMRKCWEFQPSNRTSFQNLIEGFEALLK
# Outline: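 Two formats. PolyGT radiometric: 45 min at 30 °C, stopped with phosphoric acid, counted as cpm. Ulight-JAK1 peptide: 60 min at room temperature, stopped with Eu-anti-phosphotyrosine/EDTA, read as RFU. Percent inhibition normalised to vehicle and 10 μM staurosporine.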
# human JAK3 = biological target: T3, human JAK3 (Homo sapiens, UniProt P52333); assay: JAK3 inhibition assay; conditions: recombinant human JAK3 catalytic domain; polyGT substrate
# T3 construct: catalytic domain (amino acids 781-1124; catalog number PV3855); purchased Invitrogen PV3855
# T3 sequence (P52333 781-1124): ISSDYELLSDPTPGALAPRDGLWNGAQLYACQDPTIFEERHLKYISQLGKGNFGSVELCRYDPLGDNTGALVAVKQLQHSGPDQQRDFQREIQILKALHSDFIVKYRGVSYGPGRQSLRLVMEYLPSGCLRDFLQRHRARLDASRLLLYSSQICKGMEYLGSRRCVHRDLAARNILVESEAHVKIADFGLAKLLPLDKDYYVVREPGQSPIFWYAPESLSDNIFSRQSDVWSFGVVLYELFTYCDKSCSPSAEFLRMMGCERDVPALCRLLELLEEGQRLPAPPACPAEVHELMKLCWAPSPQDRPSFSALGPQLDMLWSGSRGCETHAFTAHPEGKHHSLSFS
# Outline: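 Radiometric kinase assay: 0.5 ng JAK3 with 2.5 μg polyGT in Tris pH 7.5/MgCl2 buffer, 1 μM ATP plus 0.25 μCi 33P-γ-ATP, 1% DMSO, 45 min at 30 °C, stopped with phosphoric acid.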
# human JAK2 = biological target: T4, human JAK2 (Homo sapiens, UniProt O60674); assay: JAK2 inhibition assay (polyGT substrate / Ulight-JAK1 peptide); conditions: recombinant human JAK2 catalytic domain; polyGT or Ulight-JAK1 peptide assay
# T4 construct: catalytic domain (amino acids 808-1132; catalog number PV4210); GST; purchased Invitrogen PV4210
# T4 sequence (O60674 808-1132): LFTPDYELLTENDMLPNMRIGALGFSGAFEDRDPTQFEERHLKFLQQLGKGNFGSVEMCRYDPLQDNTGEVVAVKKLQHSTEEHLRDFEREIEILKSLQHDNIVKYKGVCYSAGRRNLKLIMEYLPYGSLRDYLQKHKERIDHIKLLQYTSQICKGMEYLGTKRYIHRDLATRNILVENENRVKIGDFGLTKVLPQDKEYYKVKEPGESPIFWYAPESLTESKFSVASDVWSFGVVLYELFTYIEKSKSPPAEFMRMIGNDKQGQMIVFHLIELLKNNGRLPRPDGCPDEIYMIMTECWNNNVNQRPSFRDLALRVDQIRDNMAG
# Outline: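 Radiometric: 0.025 mU JAK2 with 2.5 μg polyGT, 1 μM ATP plus ^33P-ATP in MOPS pH 7.5 buffer, 1% DMSO, 90 min at 30° C.; filter counting. Alternative TR-FRET format with Ulight-JAK1 peptide, 60 min at room temperature, Eu-anti-phosphotyrosine detection.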
Structure (SMILES),IC50 (human TYK2) [nM],IC50 (human JAK1) [nM],IC50 (human JAK3) [nM],IC50 (human JAK2) [nM]
"CN(c1cc2c(cn1)ncn2C)c1ccc(C2CN(S(=O)(=O)N3CCOCC3)C2)cc1OC(F)F [Compound 371, {2-Difluoromethoxy-4-[1-(morpholine-4-sulfonyl)-azetidin-3-yl]-phenyl}-methyl-(1-methyl-1H-imidazo[4,5-c]pyridin-6-yl)-amine]",> 1000,0.01 to 100,> 1000,101 to 500
"CN(c1cc2c(cn1)ncn2C)c1ccc(C2CN(CC(N)=O)C2)cc1OC(F)F [Compound 374, 2-(3-{3-Difluoromethoxy-4-[methyl-(1-methyl-1H-imidazo[4,5-c]pyridin-6-yl)-amino]-phenyl}-azetidin-1-yl)-acetamide]",> 1000,101 to 500,> 1000,101 to 500
"CCc1cc(CN2CC(C)(C)C2)ccc1N(C)c1cc2c(cn1)ncn2C [Compound 382, [4-(3,3-Dimethyl-azetidin-1-ylmethyl)-2-ethyl-phenyl]-methyl-(1-methyl-1H-imidazo[4,5-c]pyridin-6-yl)-amine]",> 1000,101 to 500,> 1000,> 1000
"CCc1cc(CC(=O)N2CC(C)(C)C2)ccc1N(C)c1cc2c(cn1)ncn2C [Compound 386, 1-(3,3-Dimethyl-azetidin-1-yl)-2-{3-ethyl-4-[methyl-(1-methyl-1H-imidazo[4,5-c]pyridin-6-yl)-amino]-phenyl}-ethanone]",> 1000,101 to 500,> 1000,> 1000
"CCc1cc(N2CC(C(=O)OC)C2)ncc1N(C)c1cc2c(cn1)ncn2C [Compound 399, 1-{4-Ethyl-5-[methyl-(1-methyl-1H-imidazo[4,5-c]pyridin-6-yl)-amino]-pyridin-2-yl}-azetidine-3-carboxylic acid methyl ester]",> 1000,0.01 to 100,> 1000,101 to 500
"CCc1cc(N2CC(C(=O)NCC#N)C2)ncc1N(C)c1cc2c(cn1)ncn2C [Compound 401, 1-{4-Ethyl-5-[methyl-(1-methyl-1H-imidazo[4,5-c]pyridin-6-yl)-amino]-pyridin-2-yl}-azetidine-3-carboxylic acid cyanomethyl-amide]",> 1000,101 to 500,> 1000,501 to 1000
"CN(c1cc2c(cn1)ncn2C)c1c(F)cc(C#N)cc1F [Compound 403, 3,5-Difluoro-4-[methyl-(1-methyl-1H-imidazo[4,5-c]pyridin-6-yl)-amino]-benzonitrile]",> 1000,501 to 1000,> 1000,> 1000
"CN(c1cc2c(cn1)ncn2C)c1c(F)cc(C2CN(C(=O)OC(C)(C)C)C2)cc1F [Compound 408, 3-{3,5-Difluoro-4-[methyl-(1-methyl-1H-imidazo[4,5-c]pyridin-6-yl)-amino]-phenyl)-azetidine-1-carboxylic acid tert-butyl ester]",> 1000,> 1000,> 1000,> 1000
"CCNC(=O)C1CN(c2cc(CC)c(N(C)c3cc4c(cn3)ncn4C)cn2)C1 [Compound 412, 1-{4-Ethyl-5-[methyl-(1-methyl-1H-imidazo[4,5-c]pyridin-6-yl)-amino]-pyridin-2-yl}-azetidine-3-carboxylic acid ethylamide]",> 1000,501 to 1000,> 1000,501 to 1000

# Other lines, results leading:
IC50 (human TYK2) [nM],IC50 (human JAK1) [nM],IC50 (human JAK3) [nM],IC50 (human JAK2) [nM],Structure (SMILES)
101 to 500,0.01 to 100,0.01 to 100,0.01 to 100,"CCc1cc(N2CCCC(C#N)C2)ncc1N(C)c1cc2c(cn1)ncn2C (centres unmarked) [Compound 416, 4′-Ethyl-5′-[methyl-(1-methyl-1H-imidazo[4,5-c]pyridin-6-yl)-amino]-3,4,5,6-tetrahydro-2H-[1,2′]bipyridinyl-3-carbonitrile]"
0.01 to 100,0.01 to 100,101 to 500,0.01 to 100,"CCc1cc(N2CC[C@H](C)C2)ncc1N(C)c1cc2c(cn1)ncn2C [Compound 417, [4-Ethyl-6-((S)-3-methyl-pyrrolidin-1-yl)-pyridin-3-yl]-methyl-(1-methyl-1H-imidazo[4,5-c]pyridin-6-yl)-amine]"
0.01 to 100,0.01 to 100,0.01 to 100,0.01 to 100,"CCc1cc(N2CCC(C#N)C2)ncc1N(C)c1cc2c(cn1)ncn2C (centres unmarked) [Compound 418, 1-{4-Ethyl-5-[methyl-(1-methyl-1H-imidazo[4,5-c]pyridin-6-yl)-amino]-pyridin-2-yl}-pyrrolidine-3-carbonitrile]"
> 1000,0.01 to 100,> 1000,0.01 to 100,"Cc1ccc(N(C)c2cc3c(cn2)ncn3C)c(OC(F)F)c1 [Compound 427, (2-Difluoromethoxy-4-methyl-phenyl)-methyl-(1-methyl-1H-imidazo[4,5-c]pyridin-6-yl)-amine]"
> 1000,101 to 500,> 1000,> 1000,"CN(c1cc2c(cn1)ncn2C)c1ccc(C#N)cc1OC(F)F [Compound 428, 3-Difluoromethoxy-4-[methyl-(1-methyl-1H-imidazo[4,5-c]pyridin-6-yl)-amino]-benzonitrile]"
> 1000,101 to 500,101 to 500,> 1000,"CCc1ccccc1N(C)c1cc2c(cn1)ncn2C(F)F [Compound 431, (1-Difluoromethyl-1H-imidazo[4,5-c]pyridin-6-yl)-(2-ethyl-phenyl)-methyl-amine]"
> 1000,101 to 500,> 1000,> 1000,"CCc1cc(N2CC(N)C2)ncc1N(C)c1cc2c(cn1)ncn2C [Compound 442, [6-(3-Amino-azetidin-1-yl)-4-ethyl-pyridin-3-yl]-methyl-(1-methyl-1H-imidazo[4,5-d]pyridin-6-yl)-amine]"
0.01 to 100,0.01 to 100,101 to 500,0.01 to 100,"CCc1cc(N2CC(NS(C)(=O)=O)C2)ncc1N(C)c1cc2c(cn1)ncn2C [Compound 443, N-(1-{4-Ethyl-5-[methyl-(1-methyl-1H-imidazo[4,5-c]pyridin-6-yl)-amino]-pyridin-2-yl}-azetidin-3-yl)-methAnesulfonamide]"
0.01 to 100,0.01 to 100,101 to 500,0.01 to 100,"CCc1cc(C(C#N)N2CCOCC2)ncc1N(C)c1cc2c(cn1)ncn2C (centres unmarked) [Compound 444, {4-Ethyl-5-[methyl-(1-methyl-1H-imidazo[4,5-c]pyridin-6-yl)-amino]-pyridin-2-yl}-morpholin-4-yl-acetonitrile]"
0.01 to 100,0.01 to 100,101 to 500,0.01 to 100,"CCC(=O)NC1CN(C(C#N)c2ccc(N(C)c3cc4c(cn3)ncn4C)c(CC)c2)C1 (centres unmarked) [Compound 454, N-[1-(Cyano-{3-ethyl-4-[methyl-(1-methyl-1H-imidazo[4,5-c]pyridin-6-yl)-amino]-phenyl}-methyl)-azetidin-3-yl]-propionamide]"
0.01 to 100,0.01 to 100,0.01 to 100,0.01 to 100,"CCc1cc(C(C#N)N2CC(NS(C)(=O)=O)C2)ccc1N(C)c1cc2c(cn1)ncn2C (centres unmarked) [Compound 455, N-[1-(Cyano-{3-ethyl-4-[methyl-(1-methyl-1H-imidazo[4,5-c]pyridin-6-yl)-amino]-phenyl}-methyl)-azetidin-3-yl]-methanesulfonamide]"
> 1000,> 1000,> 1000,> 1000,"CCc1ncncc1N(C)c1cc2c(cn1)ncn2C [Compound 456, (4-Ethyl-pyrimidin-5-yl)-methyl-(1-methyl-1H-imidazo[4,5-c]pyridin-6-yl)-amine]"
> 1000,> 1000,> 1000,> 1000,"CCc1nc(C2CN(C(=O)OC(C)(C)C)C2)cnc1N(C)c1cc2c(cn1)ncn2C [Compound 457, 3-{6-Ethyl-5-[methyl-(1-methyl-1H-imidazo[4,5-c]pyridin-6-yl)-amino]-pyrazin-2-yl}-azetidine-1-carboxylic acid tert-butyl ester]"
501 to 1000,0.01 to 100,501 to 1000,101 to 500,"CCc1cc(C2(C#N)CN(S(C)(=O)=O)C2)ncc1N(C)c1cc2c(cn1)ncn2C [Compound 458, 3-{4-Ethyl-5-[methyl-(1-methyl-1H-imidazo[4,5-c]pyridin-6-yl)-amino]-pyridin-2-yl}-1-methanesulfonyl-azetidine-3-carbonitrile]"
